Measured values published in paper PMC12040169 (PLOS Biology, 2025).

Assay: in vitro
Conditions: human, hela cells, % viability

| SMILES | viability at 28.5 h, 10 µM [%] |
| --- | --- |
| Cc1nc(NS(=O)(=O)c2ccc(Oc3ccccc3)cc2)sc1C(=O)O [CBK045566] | 107 |
| CNC(=O)c1sc2ccccc2c1C1CCN(Cc2cnc(-c3ccc(C)cc3)nc2)C1 (stereo not drawn) [CBK285883] | 108 |
| OCCC1CNCCN1CC1CCCCC1 (stereo not drawn) [CBK270115] | 97.2 |
| Cc1sc2nc(Cc3ccccc3)n(C3CCN(C(=O)c4ccco4)CC3)c(=O)c2c1C [CBK286317] | 97.3 |
| OCCN1CCN(Cc2cc(Br)cs2)CC1 [CBK261758] | 96 |
| Cc1noc(CN2CCN(CCc3ccc4c(c3)CCO4)CC2)n1 [CBK305208] | 102 |
| CC1CCCN(C(=O)c2coc(COc3ccc(F)cc3)n2)C1 (stereo not drawn) [CBK306874] | 85.5 |
| CC(C)NC(=O)NC[C@H]1C[C@@H]2CC[N@]1C[C@@H]2CN1CCN(c2ccccn2)CC1 [CBK289112] | 105 |
| OCCC1CNCCN1Cc1ccc(F)c(F)c1 (stereo not drawn) [CBK269824] | 85.6 |
| COc1cccc(C(=O)N2CCC(Cc3cccc(-c4cccs4)c3)(C(N)=O)CC2)c1 [CBK285781] | 97.8 |
| Cc1ccc(N(C(C)C(=O)Nc2ccccc2-c2ccccc2)S(C)(=O)=O)cc1 (stereo not drawn) [CBK267889] | 105 |
| c1ccc2c(c1)CCN(c1nc3cc4c(cc3s1)OCCO4)C2 [CBK287498] | 82.8 |
| O=C(O)CCSc1c[nH]c2ccccc12 [CBK262319] | 94.5 |
| COC1CCCC(C(=O)N2CCC(c3onc4c3CCCC4)CC2)C1 (stereo not drawn) [CBK284598] | 94.3 |
| COc1cc(/C=C2\NC(=S)NC2=O)c(Cl)cc1O [CBK102003] | 65.5 |
| Cc1ccc(C(F)(F)F)cc1NCc1csc(C2CCCO2)n1 (stereo not drawn) [CBK305424] | 92.8 |
| Oc1ccc(Cn2c(-c3ccc(O)cc3)nc3ccccc32)cc1 [CBK291187] | 90.3 |
| CCCCc1c(C)nc2ccc(OC)cc2c1SCCC(=O)O [CBK263888] | 98.1 |
| CCOc1cccc(-c2ccc(N(C)CCN(C)C)nc2)c1 [CBK036904] | 94.8 |
| CCOC(=O)c1ccc(NC(=O)Cc2c(C(=O)O)nnn2-c2cccc(C(F)(F)F)c2)cc1 [CBK296932] | 106 |
| Cc1cccc(-c2nc3ccc(NC(=O)CCC(=O)O)cc3o2)c1 [CBK269773] | 95.1 |
| COc1ccc(-n2nc3cc(C)c(NC(=S)NC(=O)/C=C/c4ccco4)cc3n2)cc1 [CBK264359] | 109 |
| CCN(Cc1ccncc1)C(=O)Nc1ccc2[nH]ccc2c1 [CBK155136] | 99.5 |

| SMILES | viability at 28.5 h, 10 µM [%] |
| --- | --- |
| CCCCn1c(SCC(=O)c2cc(C)n(CCc3ccc(OC)cc3)c2C)n[nH]c1=O [CBK295351] | 96.1 |
| Cc1ccc(SCC(=O)Nc2cc([N+](=O)[O-])ccc2O)cc1 [CBK268655] | 123 |
| NC(=O)CN1CCC(Oc2cncc(OCc3cccnc3)n2)C1 (stereo not drawn) [CBK084459] | 98 |
| CC(=O)NCC(=O)N1CCC2(C/C=C/CNC(=O)c3ccccc3OCCNC2=O)CC1 [CBK292006] | 97.4 |
| Cc1ccc(OCCCN2CCN(C)CC2)c(Cc2ccccc2)c1 [CBK269650C] | 104 |
| CC(C)c1ccc(C(C)NC(=O)Cn2cc(C(=O)NC3CCCC3)ccc2=O)cc1 (stereo not drawn) [CBK286121] | 103 |
| CC1CCN(CC[C@H]2CCCN2S(=O)(=O)c2cccc(O)c2)CC1 [CBK074118C] | 112 |
| CN1CCC[C@H]1C(=O)N1CCN(C(=O)c2ccco2)CC1 [CBK144449] | 94.5 |
| CS(=O)(=O)N1CCCc2cc(-c3csc(N4CCCC4)n3)ccc21 [CBK306093] | 114 |
| Cc1nnc2sc(-c3ccc(CNC(=S)NC(=O)c4ccccc4[N+](=O)[O-])cc3)nn12 [CBK268588] | 84.6 |
| NS(=O)(=O)c1ccc(CNS(=O)(=O)Cc2ccccc2)cc1 [CBK228048] | 87 |
| CN(C)c1nc(N(C)C)n(C(=O)c2cccs2)n1 [CBK019805] | 99.3 |
| Cc1ccc2c(c1)c(C)c(C(=O)NCCn1ccc(C)n1)n2C [CBK282609] | 106 |
| Cn1c(=O)n(C)c2cc(CNc3nn[nH]n3)ccc21 [CBK270243] | 92.4 |
| Cc1cc(NC(=O)CN2CCC(CNc3ccccn3)C2)on1 (stereo not drawn) [CBK305760] | 89.2 |
| CN1CCN(C(=O)c2ccsc2NS(=O)(=O)Cc2ccccc2)CC1 [CBK042266] | 97.5 |
| Cc1cccc(OCCn2cncc2-c2cnn(C)c2)c1C [CBK281497] | 99.5 |
| CC1CCc2c(sc3ncnc(SCC(=O)N(C)CCC#N)c23)C1 (stereo not drawn) [CBK305896] | 106 |
| Cc1ccc(-c2c[nH]c([C@@H]3COCCN3Cc3csnn3)n2)cc1 [CBK289302] | 91.4 |
| CC1Cc2ccccc2N1C(=O)CSc1nnc(N)s1 (stereo not drawn) [CBK269530] | 94.3 |
| COc1ccc(-c2noc([C@@H]3Cc4[nH]cnc4CN3C(=O)Nc3ccc(C)cc3)n2)cc1 [CBK288968] | 92.9 |
| Cn1c(=O)c2c(-c3ccccc3)onc2n(C)c1=O [CBK023569] | 85 |
| CN(C)CCNC(=O)C(=O)Nc1ccc(Cl)cc1 [CBK266965] | 107 |

| SMILES | viability at 28.5 h, 10 µM [%] |
| --- | --- |
| CCCn1c(CN2CCN(CCO)CC2)nc2ccccc21 [CBK269363] | 110 |
| CCOC(=O)c1cc(Cl)cnc1C1CCN(C(=O)C2CC2)CC1 [CBK284810] | 94.5 |
| CN1CC=C(/C=C/c2ccc(Sc3ncccn3)o2)CC1 [CBK283797] | 82.3 |
| CC(CN(C)C(=O)CC1CCN(C(=O)CC2CCCCC2)CC1)c1ccccc1 (stereo not drawn) [CBK286268] | 97.9 |
| CCOc1ccccc1N(CC(=O)Nc1ccc(C)cc1C)S(C)(=O)=O [CBK263799] | 96 |
| O=C(NC(c1ccc(-c2ccccc2)cc1)c1cnccn1)C1CCN(CCc2ccc(F)cc2)CC1 (stereo not drawn) [CBK147981] | 92.6 |
| Cc1ccc(S(=O)(=O)Nc2ccnc(-c3ccc(CN4C(=O)CSC4=O)cc3)n2)cc1 [CBK067925] | 96.1 |
| Cc1c[nH]c(CN(C)c2cc([C@H]3C[C@@H](N)C3)nc(N3CCCC3)n2)n1 [CBK306798] | 84.4 |
| O=C(NC(=O)N1CCOCC1)c1csnn1 [CBK005561] | 86.4 |
| O=C(O)c1snnc1-c1ccccc1 [CBK021545] | 90.9 |
| CC(=O)NCCNC(=O)c1ccc(-c2ccccc2)nc1NCCc1ccccn1 [CBK076595] | 91.3 |
| CCC(CN1CCOCC1)NC(=O)Cc1coc2c(C)c(C)ccc12 (stereo not drawn) [CBK282813] | 82.1 |
| Cc1ccn(CCNC(=O)c2cc3ccc(F)cc3[nH]2)n1 [CBK283209] | 91.9 |
| CC(C)Cn1c(=O)[nH]c2ncc(-c3cncnc3)nc21 [CBK064177] | 90.1 |
| Cc1c(C(=O)C2=C(O)C(=O)N(Cc3cccnc3)C2c2ccncc2)cnn1-c1ccccc1 (stereo not drawn) [CBK233899] | 114 |
| Cc1ccc(C)c(OCCNCc2ccco2)c1Cl [CBK269718C] | 98.3 |
| Cc1c(S(=O)(=O)N2CCC(N)C2)sc2ccc(Cl)cc12 (stereo not drawn) [CBK164970] | 89.3 |
| COc1ccc(Cn2nc(NC(=O)OC(C)C)c3ccccc32)cc1 [CBK048404] | 106 |
| CCc1nc(CC(=O)NC(c2ccc(F)cc2)C2CCCO2)cs1 (stereo not drawn) [CBK306336] | 117 |
| Cc1ccnc(SCCn2c(N(C)Cc3ccccc3)nc3c2c(=O)n(C)c(=O)n3C)n1 [CBK269394] | 98.9 |
| COc1c(S(=O)(=O)N2CCN(Cc3ccc4c(c3)OCO4)CC2)ccc(Cl)c1Cl [CBK074423] | 91.8 |
| CCc1nn2c(C3CCNCC3)ccnc2c1-c1cccs1 [CBK284226] | 80.4 |
| CCOC(=O)C1CC2CCC1C[C@]21NC(=O)c2ccccc2N1 (stereo partly drawn) [CBK284441] | 93.4 |

| SMILES | viability at 28.5 h, 10 µM [%] |
| --- | --- |
| Cc1nccn1C1CCCN(C(C)C(=O)NC2(C#N)CCCCC2)C1 (stereo not drawn) [CBK304194] | 87.3 |
| COc1ncc(-c2cncc(N3CCN(CCO)CC3)n2)c(OC)n1 [CBK065146] | 84.8 |
| CC(C)(c1ccccc1)c1ccc(OCCCCn2cncn2)cc1 [CBK266405] | 89.5 |
| CC(=O)Nc1ccc(N(CC(O)Cn2c3ccccc3c3ccccc32)S(C)(=O)=O)cc1 (stereo not drawn) [CBK264352] | 96.7 |
| CN(C)CCC(c1ccccc1)n1cncc1-c1cnn(C)c1 (stereo not drawn) [CBK281742] | 93.6 |
| Cc1cc(C)cc(Nc2c(-c3ccc(C(=O)O)cc3)nc3cnccn23)c1 [CBK287166] | 73.3 |
| O=C(CC1NC(=O)NC1=O)Nc1ccc(C(=O)O)cc1 (stereo not drawn) [CBK267355] | 99.1 |
| O=C(NC1CCN(CC2(c3ccccc3)CC2)CC1)C1CCC1 [CBK285322] | 98.9 |
| Cc1c(NC(=O)CSc2ccc(Cl)cc2)cccc1-c1nc2ncccc2o1 [CBK268829] | 109 |
| CC1CCc2c(sc3ncnc(OCC(=O)N4CCCCC4)c23)C1 (stereo not drawn) [CBK304979] | 87.5 |
| O=C(Nc1ccc(C(F)(F)F)cc1)C1=C(O)CN(c2ccc(Cl)cc2)C1=O [CBK017603] | 84.8 |
| O=C(O)c1cccc(Nc2nc(-c3ccccc3)nc3ccccc23)c1 [CBK263941C] | 97.6 |
| COc1ccc([N+](=O)[O-])cc1NC(=O)c1nc(C)c(C)nc1C(=O)O [CBK103387] | 82.6 |
| COc1cc(C(=O)O)ccc1OCC(=O)Nc1ccc(F)cc1 [CBK287101] | 95.5 |
| CN1CCN(C(=O)c2ccc(-c3ccccc3)nc2NCCc2ccccn2)CC1 [CBK076550] | 93.3 |
| c1ccc2sc(CCSCCc3nc4ccccc4s3)nc2c1 [CBK261036] | 104 |
| COc1ccc([C@@]2(O)CC[C@@H]3CN(C(=O)C4CCCC4)C[C@@H]32)cc1 [CBK285260] | 85 |
| c1ccc2c(c1)nc(-c1cscn1)n2Cc1ccc(-c2nnn[nH]2)cc1 [CBK266979] | 96.6 |
| O=C(CCS(=O)(=O)Cc1ccccc1)n1nnc2ccccc21 [CBK268324] | 99.4 |
| Cc1cc(C)cc(C(=O)N2CCCC(C(=O)N3CCN(c4nccs4)CC3)C2)c1 (stereo not drawn) [CBK298307] | 95.1 |
| Cc1ccc(NC(=O)C(=O)NCCCn2ccnc2)cc1C [CBK264157] | 98 |
